Where a SMILES comes first, the peptide text is derived from it.
What was measured:
[1] = LPS challenge study in healthy smokers: safety and tolerability (adverse events)
Experimental: Period/sequence effects were analyzed to determine potential impact of treatment order.
First multi-day dosing in humans employed a single low dose of 2.25 mg, extrapolated from animal studies (37.5 μg/kg, based on 60 kg human).
The primary study endpoints were safety and tolerability following first repeat administration and induced sputum inflammatory biomarkers interleukin-6 (IL-6), interleukin-1β (IL-1β), interleukin-8 (IL-8) and tumor necrosis factor alpha (TNFα) following inhaled LPS (30 μg) challenge, day 5.

in vitro = details: cells (cell type not stated)
[2] = inhaled, even at high doses
[3] = following repeat dosing
Rat bowel anastomosis = details: vs placebo; cited from earlier work
CaMKIV = CaMKIV (Homo sapiens, UniProt Q16566); details: 1 μM; cited from earlier work
Sequence of CaMKIV (Q16566 whole entry, species assumed): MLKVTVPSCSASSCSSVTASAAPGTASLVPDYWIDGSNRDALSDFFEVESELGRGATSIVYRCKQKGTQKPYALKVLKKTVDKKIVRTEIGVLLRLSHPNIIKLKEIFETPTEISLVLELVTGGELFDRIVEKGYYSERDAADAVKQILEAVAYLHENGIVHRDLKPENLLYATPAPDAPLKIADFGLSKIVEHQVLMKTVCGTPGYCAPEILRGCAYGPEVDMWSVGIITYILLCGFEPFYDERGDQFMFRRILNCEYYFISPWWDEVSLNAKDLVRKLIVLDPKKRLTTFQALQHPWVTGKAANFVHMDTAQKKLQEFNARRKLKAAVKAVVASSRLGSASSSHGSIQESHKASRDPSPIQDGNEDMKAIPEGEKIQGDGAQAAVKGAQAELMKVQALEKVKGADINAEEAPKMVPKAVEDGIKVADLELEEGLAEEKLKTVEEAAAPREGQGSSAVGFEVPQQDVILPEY

PKC = details: 1 μM; cited from earlier work
[4] = system: Ca2+/calmodulin-dependent protein kinase II (CaMKII); details: cited from earlier work
PKA = details: 1 μM; cited from earlier work

Compound: CC(C)C[C@H](NC(=O)[C@H](C)NC(=O)[C@H](CCCCN)NC(=O)[C@H](C)NC(=O)[C@H](CCCNC(=N)N)NC(=O)[C@H](C)NC(=O)[C@H](CCC(N)=O)NC(=O)[C@H](CCCNC(=N)N)NC(=O)[C@H](C)NC(=O)[C@H](C)NC(=O)[C@H](C)NC(=O)[C@H](CCCNC(=N)N)NC(=O)[C@H](C)NC(=O)[C@@H](N)Cc1ccc(O)cc1)C(=O)N[C@@H](C)C(=O)N[C@@H](CCCNC(=N)N)C(=O)N[C@@H](CCC(N)=O)C(=O)N[C@@H](CC(C)C)C(=O)NCC(=O)N[C@H](C(=O)N[C@@H](C)C(=O)N[C@@H](C)C(=O)O)C(C)C [MMI-0100] (H-YARAAARQARAKALARQLGVAA-OH)
- Any AE leading to treatment D/C, Patients % ([1]; N = 22): (0%)
- Any AE leading to treatment D/C, Patients N ([1]; N = 22): 0
- Any TEAE, Patients % ([1]; N = 22): (40.9%)
- Any TEAE, Patients N ([1]; N = 22): 9
- Deaths, Patients % ([1]; N = 22): (0%)
- Deaths, Patients N ([1]; N = 22): 0
- Mild TEAE, Patients % ([1]; N = 22): (27.3%)
- Mild TEAE, Patients N ([1]; N = 22): 6
- Moderate TEAE, Patients % ([1]; N = 22): (18.2%)
- Moderate TEAE, Patients N ([1]; N = 22): 4
- Severe or life threatening TEAE, Patients % ([1]; N = 22): (0%)
- Severe or life threatening TEAE, Patients N ([1]; N = 22): 0
- Any serious treatment emergent adverse event, % of subjects ([1]; Safety Population N = 22): (0.5%)
- Any serious treatment emergent adverse event, subjects ([1]; Safety Population N = 22): 0
- Concussion (serious TEAE), % of subjects ([1]; Safety Population N = 22): (0%)
- Concussion (serious TEAE), subjects ([1]; Safety Population N = 22): 0
- Injury, poisoning and procedural complications (serious TEAE), % of subjects ([1]; Safety Population N = 22): (0%)
- Injury, poisoning and procedural complications (serious TEAE), subjects ([1]; Safety Population N = 22): 0
- Joint dislocation (serious TEAE), % of subjects ([1]; Safety Population N = 22): (0%)
- Joint dislocation (serious TEAE), subjects ([1]; Safety Population N = 22): 0
- Number of serious treatment emergent adverse events ([1]; Safety Population N = 22): 0
- safety and tolerability ([1]; first repeat administration, 2.25 mg inhaled, 5 days): safe and well-tolerated
- half-life (in vitro): ~77 h
- MMI-0100 plasma concentrations [2]: little to no detectable
- effect on lung function (FEV1) [3]: no deleterious effect
- healing (integrity of anastomosis) (Rat bowel anastomosis): healing (integrity of anastomosis) unaffected

Compound: autocamtide-2 related inhibitory peptide [AIP]
- CaMKIV activity (CaMKIV): not affected
- PKC activity (PKC): not affected
- CaMKII activity ([4]; 1 μM): inhibited completely
- IC50 ([4]; CaMKII): 0.1 µM
- PKA activity (PKA): not affected

Source: patent publication US20190134153A1, “IMMUNOMODULATORY EFFECT OF INHALED KINASE INHIBITOR PEPTIDES IN LUNG” (MOERAE MATRIX, INC., priority 2017, published 2019)
